In patent US3968207A, “Method of controlling fleas and ticks on cats and dogs” (priority 1975, dated 1976):
Like-named read-outs stand apart in the source and are kept apart here.

How the values were obtained:
Rhipicephalus sanguineus = experiment: Tick control on dogs fed medicated diet, Table V; assay type: in vivo; settings: for % Control of Adult Engorged Female Ticks R.S.: dogs
Method: (§1) Five groups of two mongrel dogs each were fed a daily dose of 0, 6.25, 25, 100 or 400 mg. O,O,O',O'-tetramethyl O,O'-thiodi-p-phenylene phosphorothioate/kg. body weight in Agway Big Red Dog Meal. Dogs eating less than 75% of the food were given a corrected dose by gelatin capsule to equal 100%. Medication began 1 day after infesting each dog with 100 adult Ctenocephalides felis and 2 days before infesting each dog with 10 Dermacentor variabiles and 10 Rhipicephalus sanguineus adults.

Dermacentor variabilis = experiment: Tick control on dogs fed medicated diet, Table V; assay type: in vivo; settings: for % Control of Adult Engorged Female Ticks D.V.: dogs
Method: as §1

Ctenocephalides felis [1] = experiment: Flea control on dogs fed medicated diet, Table IV; assay type: in vivo; parameters: key: 100% Control; PC: Partial Control; NC: No Control
Method: as §1

Ctenocephalides felis [2] = experiment: Topical (spray or 2% dust) flea control on dogs, Table I; assay type: in vivo
Method: Dogs used in testing were placed in raised cages with steel grate floors. Three days prior to treatment, 100 fleas were placed on each dog. On the day of treatment each cage was lined with absorbent brown paper. Dogs were treated at various dose levels (1-60 mg./kg.) applied topically using a 2% active ingredient dust formulation, or a dilute aqueous dispersion applied as a spray. Activity was determined by the number of dead fleas recovered from the brown paper, and a systematic examination of the test animal in relation to infested, untreated control dogs.
Residual activity of the initial application of the test compound was done by experimentally reinfesting each dog at 7-day intervals with an additional 100 adult C. felis. Activity was determined as described above.

[3] = Toxicity (general statement); assay type: in vivo, dogs and cats; settings: at concentrations many times that of the actual amounts employed
fleas and ticks = experiment: Control of fleas and ticks (general statement); assay type: in vivo; settings: topically and systemically
Ctenocephalides felis [4] = experiment: 2% powder against experimental flea infestations on cats; assay type: in vivo; settings: 60 mg/kg as 2% powder
Method: An experiment was conducted using O,O,O',O'-tetramethyl O,O'-thiodi-p-phenylene phosphorothioate which was prepared from a 25% concentrate diluted with talc so the final powder was 2% drug. Prior to the start of the test 23 cats were classified according to sex, age, hair length and color and divided into five groups. One of these groups was then randomly selected to be the controls and the other groups were assigned for treatment in a random order. The amount of 2% drug dust applied to each cat was calculated prior to treatment to give a dose rate of 60 mg. drug/kg. The duster was weighed before treating each cat and at intervals during dusting to get as near the desired dose as possible. […] Table VII summarizes the results obtained up to 48 days after treatment.

[5] = system: Boophilus microplus larvae; experiment: Control of acarina larvae in pipettes (simulated spray); assay type: in vivo; settings: Rhipicephalus microplus, 48 hours, read-out: Activity (larval mortality)
Method: Boophilus is a one-host tick which uses only one host animal during its three parasitic life stages (larvae, nymph, adult). […] Twenty larvae are enclosed in a pipette sealed at one end with a gauze material, and the "solution" containing the test compound is then drawn through the pipette with a vacuum hose, simulating a spray system. The open end of the pipette is sealed with plastiline and the ticks held for 48 hours at room temperature and 80+% humidity. Activity is based on mortality. The test compound was 100%, 100% and 0% active at 0.01%, 0.001% and 0.0001% (w/w), respectively.

Amblyomma americanum = experiment: Control of adult ticks on rabbits, Table II; assay type: in vivo; settings: for mortality at 0.05 % / mortality at 0.2 % / mortality at 0.4 %: Amblyomma americanum, topical, 96 h, 4 days after treatment
Method: The midsection of each host rabbit is clipped, and a rubber capsule is cemented to the clipped portion of the skin. After a 24-hour drying period, the 10 ticks are placed in the capsule and allowed to attack the host for 72 hours. On the day of treatment, each capsule is sprayed with 2-3 cc. of the test compound, O,O,O',O'-tetramethyl O,O'-thiodi-p-phenylene phosphorothioate. Sufficient rabbits were used to test at concentrations of 0.05%, 0.20% and 0.40% (w/w), respectively.
Mortality was noted 4 days after treatment. On those rabbits where female ticks survived, five untreated male ticks were introduced and the ticks allowed to mate. Fully engorged females were then removed from the capsule and placed in petri dishes for oviposition. Effect of fecundity is then determined by comparing the percent of eggs laid and the percent of eggs which hatch in the treated versus the controls.

[6] = 400 mg/kg in feed, end of experiment (8 days)

## COP(=S)(OC)Oc1ccc(Sc2ccc(OP(=S)(OC)OC)cc2)cc1 [O,O,O',O'-tetramethyl O,O'-thiodi-p-phenylene phosphorothioate]
Rhipicephalus sanguineus; 6.25 mg/kg in feed
  effect against adult ticks: ineffective
  % Control of Adult Engorged Female Ticks R.S.: 20%
Rhipicephalus sanguineus; 25 mg/kg in feed
  effect against adult ticks: ineffective
  % Control of Adult Engorged Female Ticks R.S.: 0%
Rhipicephalus sanguineus; 100 mg/kg in feed
  condition of ticks: engorged and detached normally
  % Control of Adult Engorged Female Ticks R.S.: 50%
Rhipicephalus sanguineus; 400 mg/kg in feed, end of experiment
  condition of two female ticks on the ear of one dog: appeared normal, though not completely engorged
Rhipicephalus sanguineus; [6]
  condition of adult ticks in capsules: either dead or moribund
Rhipicephalus sanguineus; 400 mg/kg in feed
  % Control of Adult Engorged Female Ticks R.S.: 100%
Dermacentor variabilis; 6.25 mg/kg in feed
  effect against adult ticks: ineffective
  % Control of Adult Engorged Female Ticks D.V.: 0%
Dermacentor variabilis; 25 mg/kg in feed
  effect against adult ticks: ineffective
  % Control of Adult Engorged Female Ticks D.V.: 10%
Dermacentor variabilis; 100 mg/kg in feed, some ticks on one dog
  condition of ticks: discolored and stunted
Dermacentor variabilis; [6]
  condition of adult ticks in capsules: either dead or moribund
Dermacentor variabilis; 100 mg/kg in feed
  % Control of Adult Engorged Female Ticks D.V.: 30%
Dermacentor variabilis; 400 mg/kg in feed
  % Control of Adult Engorged Female Ticks D.V.: 100%
Ctenocephalides felis [1]; 6.25 mg/kg in feed, 1 dog, after 3 days
  Flea Control: complete flea control
Ctenocephalides felis [1]; 6.25 mg/kg in feed, other dog, after 4 days
  Flea Control: complete flea control
Ctenocephalides felis [1]; 400, 100 or 25 mg/kg in feed, all dogs, after 48 hours
  Flea Control: Complete flea control
Ctenocephalides felis [1]; in feed 6.25 mg/kg daily, day 2
  Flea Control: NC and PC
Ctenocephalides felis [1]; in feed 6.25 mg/kg daily, day 4
  Flea Control: 100 (100% Control)
Ctenocephalides felis [1]; in feed 25 mg/kg daily, day 2
  Flea Control: 100 (100% Control)
Ctenocephalides felis [1]; in feed 100 mg/kg daily, day 2
  Flea Control: 100 (100% Control)
Ctenocephalides felis [1]; in feed 400 mg/kg daily, day 2
  Flea Control: 100 (100% Control)
Ctenocephalides felis [2]; 2% dust 10.0 mg/kg, day 0
  Percent Activity: 100%
Ctenocephalides felis [2]; 2% dust 10.0 mg/kg, day 7
  Percent Activity: 100%
Ctenocephalides felis [2]; 2% dust 10.0 mg/kg, day 14
  Percent Activity: 100%
Ctenocephalides felis [2]; 2% dust 10.0 mg/kg, day 21
  Percent Activity: 100%
Ctenocephalides felis [2]; 2% dust 10.0 mg/kg, day 28
  Percent Activity: 80%
Ctenocephalides felis [2]; 2% dust 10.0 mg/kg, day 42
  Percent Activity: 0%
Ctenocephalides felis [2]; 2% dust 20.0 mg/kg, day 0
  Percent Activity: 100%
Ctenocephalides felis [2]; 2% dust 20.0 mg/kg, day 7
  Percent Activity: 100%
Ctenocephalides felis [2]; 2% dust 20.0 mg/kg, day 14
  Percent Activity: 100%
Ctenocephalides felis [2]; 2% dust 20.0 mg/kg, day 21
  Percent Activity: 100%
Ctenocephalides felis [2]; 2% dust 20.0 mg/kg, day 28
  Percent Activity: 100%
Ctenocephalides felis [2]; 2% dust 20.0 mg/kg, day 42
  Percent Activity: 0%
Ctenocephalides felis [2]; 2% dust 40.0 mg/kg, day 0
  Percent Activity: 100%
Ctenocephalides felis [2]; 2% dust 40.0 mg/kg, day 7
  Percent Activity: 100%
Ctenocephalides felis [2]; 2% dust 40.0 mg/kg, day 14
  Percent Activity: 100%
Ctenocephalides felis [2]; 2% dust 40.0 mg/kg, day 21
  Percent Activity: 100%
Ctenocephalides felis [2]; 2% dust 40.0 mg/kg, day 28
  Percent Activity: 100%
Ctenocephalides felis [2]; 2% dust 40.0 mg/kg, day 42
  Percent Activity: 0%
Ctenocephalides felis [2]; spray 1.25 mg/kg, day 0
  Percent Activity: 100%
Ctenocephalides felis [2]; spray 1.25 mg/kg, day 7
  Percent Activity: 100%
Ctenocephalides felis [2]; spray 1.25 mg/kg, day 14
  Percent Activity: 100%
Ctenocephalides felis [2]; spray 1.25 mg/kg, day 21
  Percent Activity: 100%
Ctenocephalides felis [2]; spray 1.25 mg/kg, day 25
  Percent Activity: 0%
Ctenocephalides felis [2]; spray 2.5 mg/kg, day 0
  Percent Activity: 100%
Ctenocephalides felis [2]; spray 2.5 mg/kg, day 7
  Percent Activity: 100%
Ctenocephalides felis [2]; spray 2.5 mg/kg, day 14
  Percent Activity: 100%
Ctenocephalides felis [2]; spray 2.5 mg/kg, day 21
  Percent Activity: 0%
Ctenocephalides felis [2]; spray 10.0 mg/kg, day 0
  Percent Activity: 100%
Ctenocephalides felis [2]; spray 10.0 mg/kg, day 7
  Percent Activity: 100%
Ctenocephalides felis [2]; spray 10.0 mg/kg, day 14
  Percent Activity: 100%
Ctenocephalides felis [2]; spray 10.0 mg/kg, day 21
  Percent Activity: 100%
Ctenocephalides felis [2]; spray 10.0 mg/kg, day 28
  Percent Activity: 10%
[3]
  toxicity: substantially non-toxic
Fleas and ticks
  controlling fleas and ticks: highly effective
Ctenocephalides felis [4]; fifth week
  control: 64%
Ctenocephalides felis [4]; for four weeks
  residual control against C. felis on cats: excellent residual control
Ctenocephalides felis [4]; for three weeks
  control: 100%
Ctenocephalides felis [4]; fourth week
  control: 90%
Ctenocephalides felis [4]; sixth week
  control: 40%
[5]; 0.0001% (w/w)
  mortality at 0.0001 %: 0%
[5]; 0.001% (w/w)
  mortality at 0.001 %: 100%
[5]; 0.01% (w/w)
  mortality at 0.01 %: 100%
Amblyomma americanum; 0.05% (w/w)
  Eggs Hatched (%): 90%
Amblyomma americanum; 0.20% (w/w)
  Eggs Hatched (%): 50%
Amblyomma americanum; 0.20% and 0.40% (w/w)
  Control of ticks: effectively controls amblyomma ticks by killing the adult males and some females and rendering the female ova non-viable
Amblyomma americanum; 0.40% (w/w)
  Eggs Hatched (%): 1%
Amblyomma americanum; 0.05% (w/w), read-out: Deaths (%) Females
  mortality at 0.05 %: 10%
Amblyomma americanum; 0.05% (w/w), read-out: Deaths (%) Males
  mortality at 0.05 %: 70%
Amblyomma americanum; 0.20% (w/w), read-out: Deaths (%) Females
  mortality at 0.2 %: 40%
Amblyomma americanum; 0.20% (w/w), read-out: Deaths (%) Males
  mortality at 0.2 %: 100%
Amblyomma americanum; 0.40% (w/w), read-out: Deaths (%) Females
  mortality at 0.4 %: 50%
Amblyomma americanum; 0.40% (w/w), read-out: Deaths (%) Males
  mortality at 0.4 %: 100%
